Measurements from patent US20150071918A1, “PEPTIDES FOR THE TREATMENT OF CANCER” (H. LEE MOFFITT CANCER CENTER AND RESEARCH INSTITUTE, INC., priority 2012, published 2015).
“Also recorded” adds a separate entry of the source. *1 amine or outer side, *2 acyl side, *3 side chain or, on linkers, in order; H or OH if unused. Where a SMILES comes first, the peptide text is derived from it. Bridges are numbered along the chain shown (N, C = ends). [ ]: non-standard residue; d: D form. The star is where a group is joined. dProlinol(O-CH2CO) = O=C(COC[C@H]1CCCN1[*:1])[*:2]; N(2-Aminoethyl)Gly = O=C(CN(CCN[*:3])[*:1])[*:2]; Nle = CCCC[C@H](N)C(=O)O; Ms = CS(=O)(=O)*

Columns and labels:
[1] = system: H929 myeloma cells engrafted into the bone implant; test: MM SCID-Hu in vivo model, tumor burden by circulating Kappa/paraprotein levels (ELISA); design: species or system mice; settings: H929, 8 mg/kg i.p.
Experimental: Briefly, 50,000 H929 myeloma cells were engrafted into the bone implant for 10 days prior to initiation of peptide treatment. Following tumor engraftment mice were randomized (0 time point) and injected with 8 mg/kg c-HYD1 or vehicle control (VC) daily (I.P. injections) for 14 days and every other day from day 14-28 at which time treatment stopped. Tumor burden was measured by circulating Kappa levels by ELISA weekly. N=10 mice for vehicle control (VC) and 9 mice for c-HYD1 treated.
(§1) FIG. 49. Cyclic HYD1 (MTI-101) was dosed daily at 8 mpk for the first week and then every other day for 4 weeks. The mice were bled weekly to measure paraprotein as a surrogate for tumor burden. […] Three of five vehicle-treated control animals had died by 35 days which contributes to the large SD.
FIGS. 61A-61C. MTI-101 inhibits tumor growth and increases survival in two independent myeloma in vivo models. […] FIG. 61A: Scid-hu model: Following tumor engraftment (2 weeks) mice were randomized (0 time point) and injected with 8 mg/kg MT101 or vehicle control (control) daily (i.p. injections) for 14 days and every other day from day 14-28 at which time treatment stopped. Tumor burden was measured by circulating paraprotein (K light chain) levels by ELISA weekly. […] Images were quantified utilizing Image J and tumor volume in the bone was quantified relative to the entire bone volume (n=5 tibias per group).

[2] = Weight of mice and overt signs of toxicity under peptide injection; assay type: in vivo; settings: mice treated with cyclized HYD1
Experimental: FIG. 37 is a graph showing the effect of cyclized HYD1 (MTI-101) injection on the weight of mice.
as §1

[3] = system: CD34+ cells from primary AML samples; test: Cell death in primary CD34+ AML cells; assay type: cell-based, human; settings: 24 hours
Experimental: FIG. 45. Primary CD34+AML cells are sensitive to HM-27 (MTI-101) while their normal counterparts are not. Enriched CD34+ cells from peripheral blood and bone marrow of normal individuals were treated with varying doses of HM-27 for 24 hours and then analyzed for cell death as described in the Materials and Methods.
FIG. 64. MTI-101 induces cell death in primary CD34 progenitor cells from AML patient. […] CD34-positive cells were enriched using immunomagnetic beads in primary AML samples and normal bone marrow aspirates. Cell death was measured by annexin V positivity and FACS analysis.
Cells were collected after incubation with HM-27 and analyzed for markers of cell death indicative of either apoptosis, autophagy or necrosis. BM-MNCs were isolated from marrow aspirates of AML patients and normal individuals by Ficoll-Paque centrifugation and further enriched for CD34+ cells using immunomagnetic beads. Cell death was assessed by TO-PRO-3 staining followed by FACS analysis.

[4] = system: PC9 and HCC4006 cells (activating EGFR mutations); test: MTT survival, combination index with EGFR inhibitor, 72 hours; assay type: cell-based; settings: PC9 or HCC4006 cells
Experimental: FIG. 68. MTI-101 and EGFR inhibitors are synergistic in cell lines with activating EGFR mutations. Cell lines with activating EGFR mutations (PC9 and HCC4006) were treated with varying concentrations of erlotinib or MTI-101 (also referred to as HM-27) for 72 hours and survival was assayed by MTT analysis. Generated data were used to calculate combination index (CI).
FIG. 69. MTI-101 plus EGFR inhibitors are synergistic in lung cancer cell lines with EGFR activating mutations, and MTI-101 plus MEK inhibitors are synergistic in cell lines arboring activating RAS or BRAFF mutations. Values indicate average calculated combination index (CI). Additive (CI=1), synergism (CI<1) and, antagonism (CI>1). […] Cell viability was measured by the MTT assay. Data generated were used to calculate a Chou and Talalay Combination Index (CI).

[5] = system: phospho-ERK and CD44-associated PYK2 in NCI-H929 and U266 MM cells; test: Signal transduction in MM cells (pErk, CD44 immunoprecipitation probed for Pyk2, Src); assay type: cell-based; settings: 5 uM H929 and 10 uM U226 cells
Experimental: FIGS. 55A-55D. […] NCI-H929 and U266 were treated with 5 uM and 10 uM HM-27 respectively for various time points before whole cell lysis in RIPA buffer and probed for pErk and tErk (FIGS. 55A, 55B).
FIGS. 58A-58D. […] MTI-101 activates ERK and Pyk2. Member of these pathways can be utilized as biomarkers of response. In addition, agents that target survival pathways can be used in combination with MTI-101 (data supporting this in AML).
The inventors performed a total membrane binding assay with biotin conjugated HYD1 and NeutrAvidin beads on NCI-H929 and U266 MM cells. Samples were then loaded on an SDS-PAGE gel, trypsin digested, and analyzed by Liquid Chromatography-Mass Spectrometry/Mass Spectrometry (LC-MS/MS). The adhesion receptor CD44 was determined to be among the adhesion receptors that had the most peptide match hits and was confirmed as a valid hit via Western Blot analysis using biotin as a control for non-specific binding. In order to assess the binding between CD44 and HYD1, 96-well NeutrAvidin coated plates were preincubated with biotin-HYD1 before the addition of increasing concentrations of full length recombinant human CD44. For more quantitative binding affinity analysis we produced the human globular ectodomain of CD44 comprising of amino acids 20-178. […]

CCCC[C@@H]1NC(=O)CN(S(C)(=O)=O)CCNC(=O)[C@H](CCCCN)NC(=O)[C@H](CC(C)C)NC(=O)[C@H](CCCCN)NC(=O)[C@H](CC(C)C)NC(=O)[C@H](CCCCN)NC(=O)COC[C@H]2CCCN2C(=O)[C@H](Cc2c[nH]c3ccccc23)NC(=O)[C@H](C)NC(=O)[C@H](C(C)C)NC(=O)[C@H](C(C)C)NC1=O [MTI-101] (Ms-[N(2-Aminoethyl)Gly][Nle]VVAW[dProlinol(O-CH2CO)]KLKLK; lactam 1-C)
tumor growth / tumor burden [1]: significantly reduces tumor growth (p<0.05 ANOVA) | tumor growth / tumor burden ([1]; listed as c-HYD1): completely inhibits human MM tumor xenographs growth in SCID mice; also recorded: inhibits multiple myeloma engrafted tumor in the SCID-HU model | weight loss / signs of toxicity [2]: No weight loss or any overt signs of toxicity were observed | weight loss / signs of toxicity ([2]; listed as c-HYD1): no apparent toxicity | cell death in primary AML CD34+ cells [3]: Primary AML specimens are sensitive to MTI-101 induced cell death | cell death in primary AML CD34+ cells ([3]; listed as HM-27): CD34+ cells from primary AML samples are sensitive to HM-27; also recorded: increased potency in samples from relapsed patients compared to specimens obtained from the newly diagnosed | combination with EGFR inhibitor Erlotinib [4]: Synergistic growth inhibition | phospho-ERK and CD44-associated PYK2 in MM cells [5]: induces transient phospho-ERK and CD44-associated PYK2 complex in NCI-H929 and U266 MM cells
